Measurements published in patent US20180030546A1, “Identification of a 5-Gene Expression Signature Predicting Clinical Outcome of Patients with Brain Tumors” (THE TRUSTEES OF COLUMBIA UNIVERSITY IN THE CITY OF NEW YORK, priority 2012, published 2018).

How the values were obtained:
[1] = system: SSEA1 and ITGα6 positive GICs; test: Proximity of GICs to CD31 positive endothelial cells in the perivascular niche; format: in vivo, mouse; details: Id-cTKO tumors versus controls
Protocol: (§1) Tissue preparation and immunohistochemistry on brain tumors and immunofluorescence staining were performed as previously described (26, 50, 51). In histograms, values represent the mean values; error bars are standard deviations (SD) or standard error of the mean (SEM) as indicated in Figure legends. Statistical significance was determined by t test (two-tailed) using GraphPad Prism 4.0 software (GraphPad Inc., San Diego, Calif.). Quantification of the IL-6 intensity staining in was performed using NIH Image J software (http://rsb.info.nih.gov/ij/). The histogram of the intensity of fluorescence of each point of a representative field for each condition was generated. The fluorescence intensity of three fields from three independent tumors was scored, and standardized to the number of cells in the field.

[2] = system: Ras-V12-IRES-Cre-ER-shp53 HGG; test: Histology and immunostaining of Ras-V12-IRES-Cre-ER-shp53 tumors after tamoxifen or oil; format: in vivo, mouse
Protocol: as §1
Intracranial injection of Ras-V12-IRES-Cre-ER-shp53 lentivirus was performed in 4-week-old Id-cTKO mice in accordance with guidelines of the […] Animal Care and Use Committee. Briefly, 1.3 μl of purified lentiviral particles in PBS (1×10^9/ml) were injected 1.45 mm lateral and 1.6 mm anterior to the bregma, and 2.3 mm below the skull using a stereotaxic frame (Kopf Instruments). Orthotopic implantation of mouse glioma cells was performed as described using 50,000 cells in 2 μof phosphate buffer (26). […] Mice were monitored daily and sacrificed when neurological symptoms appeared. Tumor volume was obtained using three-dimensional measurements in the formula for an ellipsoid: [Length×Width×Height×(π/6)]. The dimensions were derived from a complete, H&E stained, histological sectioning of the mouse brain. The length was determined by counting the number of sections containing tumor cells and multiplying it by the section thickness. […] Kaplan-Meier survival curve was generated using the DNA Statview software package (AbacusConcepts, Berkeley, Calif.).

[3] = system: Ras-V12-IRES-Cre-ER-shp53 HGG; test: Survival of glioma-bearing Id-cTKO mice treated with tamoxifen or oil; format: in vivo, mouse
[4] = system: GICs from HrasV12-Cre-ER-shp53 glioma; test: Glioma sphere formation and limiting dilution assay; format: cell-based, mouse
Protocol: For human and mouse glioma sphere formation, cells were infected with lentiviral particles. Three days later single cells were plated at density of ≦3 cells/well in triplicate in low attachment 96 well plates. The number and the size of spheres were scored after 10-14 days. Limiting dilution assay was performed as described previously (24). Spheres were dissociated into single cells and plated in 96-well plates in 0.2 ml of medium containing growth factors. Cultures were left undisturbed for 10 days, and then the percentage of wells not containing spheres for each cell dilution was calculated and plotted against the number of cells per well. Linear regression lines were plotted, and the number of cells required to generate at least one sphere in every well (=the stem cell frequency) was calculated. The experiment was repeated twice.

SMILES: CC/C(=C(\c1ccccc1)c1ccc(OCCN(C)C)cc1)c1ccccc1 [tamoxifen]
- reduction of the fraction of GICs residing within 10 μm from CD31-positive cells [1]: five-fold
- tumors with dramatic reduction of tumor volume compared with carrier-treated tumors ([2]; Id-cTKO mice sacrificed six weeks after tumor initiation): 80%
- reduction in the proliferation rate measured by Ki67 immunoreactivity ([2]; Id-cTKO mice, six weeks after tumor initiation, versus control tumors): four-fold
- ID1 and ID2 expression in advanced tumors by immunofluorescence ([2]; seven days after a single four-day cycle of tamoxifen treatment): loss of ID1 and ID2 expression
- mice alive after a median of twenty weeks ([3]; Id-cTKO mice, HrasV12-Cre-ER-shp53 lentivirus, tamoxifen by feeding needle, 4-day cycles from day 12, seven of eleven mice): 64%
- tumor growth ([3]; wild type animals infected with HrasV12-Cre-ER-shp53 lentivirus (without ID ablation), data not shown): did not affect tumor growth
- tumor-sphere forming capacity ([4]; GICs derived from Id1wt/wt;Id2wt/wt;Id3-/- mice): no effect
- tumor-sphere forming capacity ([4]; GICs isolated from Id-cTKO mice): abolished
- minimal frequency of glioma cells endowed with stem cell capacity ([4]; limiting dilution, cells from freshly dissociated tumors of treated animals, control 3.84%±0.51): 0.29%±0.02
